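Exposure lasted 48 hours, with cells grown in 96-well plates and compounds tested at five concentrations. The concentration for 50% growth inhibition is given as GI50.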 Activity calls are given as the source filed them. Cut-off read from the data, not from the text of the source: active = GI50 up to about 1.1 µM and inactive = higher.
How the values were obtained:
Assay in all cases: growth of human tumour cells (NCI), 48 h
[1] = tested on: SF-268
[2] = tested on: RXF 393
[3] = tested on: SNB-75
[4] = tested on: HT-29
[5] = tested on: NCI-H522
[6] = tested on: CAKI-1
[7] = tested on: KM12
[8] = tested on: DU-145
[9] = tested on: U-251
[10] = tested on: OVCAR-5
[11] = tested on: HL-60
[12] = tested on: SK-OV-3
[13] = tested on: OVCAR-4
[14] = tested on: Malme-3M
[15] = tested on: T47D
[16] = tested on: NCI-H226
[17] = tested on: TK-10
[18] = tested on: CCRF-CEM
[19] = tested on: HCT-116
[20] = tested on: LOX IMVI
[21] = tested on: MDA-MB-435
[22] = tested on: MOLT-4
[23] = tested on: COLO 205
[24] = tested on: SR
[25] = tested on: SF-539
[26] = tested on: OVCAR-8
[27] = tested on: Hs-578T
[28] = tested on: UACC-62
[29] = tested on: SN12C
[30] = tested on: A549
[31] = tested on: UACC-257
[32] = tested on: EKVX
[33] = tested on: MCF7
[34] = tested on: PC-3
[35] = tested on: IGROV-1
[36] = tested on: SK-MEL-5
[37] = tested on: SK-MEL-2
[38] = tested on: NCI/ADR-RES
[39] = tested on: HOP-62
[40] = tested on: NCI-H23
[41] = tested on: SF-295
[42] = tested on: RPMI-8226
[43] = tested on: K562
[44] = tested on: OVCAR-3
[45] = tested on: MDA-MB-231
[46] = tested on: HOP-92
[47] = tested on: SK-MEL-28
[48] = tested on: SW-620
[49] = tested on: ACHN
[50] = tested on: 786-0
[51] = tested on: UO-31
[52] = tested on: SNB-19
[53] = tested on: HCT-15
[54] = tested on: NCI-H460
[55] = tested on: M14
[56] = tested on: HCC 2998
[57] = tested on: A498
[58] = tested on: MDA-N

Measured: GI50

Cc1ccc(/C(Cl)=C/C=C(C#N)C#N)cc1
inactive: [1] 5.9 µM | [2] 2.61 µM | [3] 13.2 µM | [4] 2.59 µM | [5] 1.98 µM | [6] 3.64 µM | [7] 5.22 µM | [8] 11.3 µM | [9] 4.18 µM | [10] 2.6 µM | [11] 2 µM | [12] 5.78 µM | [13] 3.22 µM | [14] 3.85 µM | [15] 4.23 µM | [16] 4.39 µM | [17] 2.25 µM | [19] 1.83 µM | [20] 1.17 µM | [21] 2.47 µM | [23] 3.31 µM | [24] 1.37 µM | [25] 2.64 µM | [26] 3.16 µM | [27] 2.16 µM | [28] 4.51 µM | [29] 3.72 µM | [30] 21.9 µM | [31] 2.52 µM | [32] 10.1 µM | [33] 30.4 µM | [34] 4.01 µM | [35] 3.59 µM | [36] 1.8 µM | [37] 6.32 µM | [38] 2.18 µM | [39] 1.98 µM | [40] 1.76 µM | [41] 13.3 µM | [42] 2.35 µM | [44] 1.93 µM | [45] 2.64 µM | [46] 3.26 µM | [47] 2.14 µM | [48] 1.91 µM | [49] 2.45 µM | [50] 1.88 µM | [51] 4.58 µM | [52] 7.62 µM | [54] 3.8 µM | [55] 2.51 µM
active: [18] 0.441 µM | [22] 0.65 µM | [43] 0.817 µM
2.1 µM: [53]

CO[C@@H]1/C=C\C=C(/C)C(=O)NC2=CC(=O)C(NCCN(C)C)=C(C[C@@H](C)C[C@@H](OC)[C@@H](O)[C@H](C)/C=C(\C)[C@H]1OC(N)=O)C2=O
inactive: [13] 1.14 µM | [57] 13.2 µM
0.619 µM: [53]
active: [3] < 0.01 µM | [7] 0.0122 µM | [9] 0.011 µM | [12] 0.0137 µM | [56] 0.015 µM | [14] 0.013 µM | [18] 0.0247 µM | [19] 0.0171 µM | [20] 0.0108 µM | [22] 0.0303 µM | [23] 0.0145 µM | [24] < 0.01 µM | [26] 0.0172 µM | [28] 0.0172 µM | [29] 0.0113 µM | [30] < 0.01 µM | [31] 0.0159 µM | [33] < 0.01 µM | [35] 0.0139 µM | [40] < 0.01 µM | [42] 0.0713 µM | [43] 0.0139 µM | [50] 0.0286 µM | [51] 0.838 µM | [52] 0.0292 µM | [55] 0.0104 µM

CC(CC[C@@]1(C)C(=O)CCC2O[C@]21C)[C@H]1C[C@@H](c2ccoc2)OC1=O (some centres undefined)
inactive: [1] 31 µM | [2] 17.2 µM | [4] 74.5 µM | [5] 3.17 µM | [6] 26.5 µM | [7] > 100 µM | [8] 57.9 µM | [9] 35.9 µM | [10] 61.1 µM | [11] 23.7 µM | [12] > 100 µM | [56] > 100 µM | [13] 20.6 µM | [14] 31.5 µM | [15] > 100 µM | [16] > 100 µM | [17] 35.8 µM | [18] 19.6 µM | [19] 19.5 µM | [20] 19.8 µM | [21] 44.1 µM | [22] 28.3 µM | [58] 57.1 µM | [57] > 100 µM | [23] 24.2 µM | [24] 97.9 µM | [25] 35.7 µM | [27] 39.3 µM | [28] 95.9 µM | [29] 27.8 µM | [30] > 100 µM | [31] > 100 µM | [32] > 100 µM | [33] 65.6 µM | [34] 62.2 µM | [35] 67.3 µM | [36] > 100 µM | [37] > 100 µM | [38] 45.6 µM | [39] > 100 µM | [40] 61.4 µM | [41] > 100 µM | [42] 35.5 µM | [43] 22.3 µM | [44] 26.9 µM | [46] 28.4 µM | [47] 23.6 µM | [48] 31.9 µM | [49] 22.1 µM | [50] 28.8 µM | [51] 17.2 µM | [52] > 100 µM | [54] > 100 µM | [55] 72.9 µM
35.7 µM: [53]

— ChEMBL document CHEMBL1201862, “PubChem BioAssay data set” (2004)
